# Experimental data reported in US20250282812A1, “ANTIVIRAL NUCLEOSIDE ANALOGUE, AND PHARMACEUTICAL COMPOSITION AND USE THEREOF” (SHANGHAI INSTITUTE OF MATERIA MEDICA , CHINESE ACADEMY OF …, priority 2022, published 2025).
# pEC50: −log10 of the molar value.
# Assays:
# [1] = Stability test of compounds in solutions at different pH values
# [2] = tested on: influenza virus (IFV) A/California/07/2009 (H1N1) pdm09 strain; assay: In vitro activity against influenza virus (CPE, CCK8, MDCK cells); format: cell-based; conditions: 120 h, read-out: IFV (MDCK) EC50
# [3] = in vitro; conditions: dog
# [4] = Cytotoxicity in HEp-2 cells (CCK8); conditions: human
# [5] = tested on: respiratory syncytial virus (RSV) A long strain; assay: In vitro activity against respiratory syncytial virus (CPE, CCK8, HEp-2 cells); format: cell-based; conditions: human respiratory syncytial virus, 120 h, MOI=0.02, 5 days
# [6] = Solubility of compounds in water; conditions: thermodynamic from solid
# [7] = tested on: SFTSV-Nluc; assay: microbe, parasite or virus in culture; format: cell-based, severe fever with thrombocytopenia syndrome virus (SFTSV); conditions: Severe fever with thrombocytopenia syndrome virus, Vero, 48 h; for inhibition at 10 µM: read-out: Inhibition rate (10 μM)
# [8] = tested on: SFTSV-Nluc; design: species or system A129 mice; conditions: mouse
# [9] = tested on: influenza virus Influenza A/PR/8/34 (PR8); assay: In vivo efficacy for influenza virus in mice; design: species or system Balb/C mice; conditions: for body weight after 4 days of infection compared with the initial body weight: intragastric once daily Day 0-3, X219 hydrochloride 10, 20 and 30 mpk, favipiravir 200 mpk
# [10] = tested on: respiratory syncytial virus (RSV A2); assay: In vivo efficacy for respiratory syncytial virus (RSV) in mice
# [11] = buffered saline solution pH 4.0, 3 h
# [12] = buffered saline solution pH 4.0, 6 h
# [13] = buffered saline solution pH 4.0, 9 h
# [14] = buffered saline solution pH 4.0, 12 h
# [15] = buffered saline solution pH 4.0, 15 h
# [16] = buffered saline solution pH 4.0, 18 h
# [17] = buffered saline solution pH 4.0, 21 h
# [18] = buffered saline solution pH 4.0, 24 h
# [19] = buffered saline solution pH 6.8, 3 h
# [20] = buffered saline solution pH 6.8, 6 h
# [21] = buffered saline solution pH 6.8, 9 h
# [22] = buffered saline solution pH 6.8, 12 h
# [23] = buffered saline solution pH 6.8, 15 h
# [24] = buffered saline solution pH 6.8, 18 h
# [25] = buffered saline solution pH 6.8, 21 h
# [26] = buffered saline solution pH 6.8, 24 h
smiles,measurement,setting,value
CC(=O)OC[C@@]1(F)O[C@@H](n2ccc(=O)n(COC(=O)c3cccnc3)c2=O)[C@H](OC(C)=O)[C@@H]1OC(C)=O [Compound X219],Content reduction (%),[1]; [11],0.22%
same,Content reduction (%),[1]; [12],0.34%
same,Content reduction (%),[1]; [13],0.44%
same,Content reduction (%),[1]; [14],0.62%
same,Content reduction (%),[1]; [15],0.70%
same,Content reduction (%),[1]; [16],0.78%
same,Content reduction (%),[1]; [17],0.93%
same,Content reduction (%),[1]; [18],1.02%
same,Content reduction (%),[1]; [19],1.06%
same,Content reduction (%),[1]; [20],1.86%
same,Content reduction (%),[1]; [21],2.92%
same,Content reduction (%),[1]; [22],3.96%
same,Content reduction (%),[1]; [23],5.27%
same,Content reduction (%),[1]; [24],6.01%
same,Content reduction (%),[1]; [25],7.02%
same,Content reduction (%),[1]; [26],8.38%
same,pEC50,[2],5.41
same,CC50,[3],> 10 µM
same,CC50 at 5 days,[4],> 10 µM
same,pEC50,[5],5.59
same,solubility at 15 min,[6],700 µg/mL
same,pEC50,[7],5.47
same,inhibition at 10 µM,[7],91.7%
CC(C)C(=O)OCn1c(=O)ccn([C@@H]2O[C@](F)(COC(=O)C(C)C)[C@@H](O)[C@H]2O)c1=O [Compound X51],Content reduction (%),[1]; [11],1.6%
same,Content reduction (%),[1]; [12],2.5%
same,Content reduction (%),[1]; [13],3.1%
same,Content reduction (%),[1]; [14],3.4%
same,Content reduction (%),[1]; [15],3.9%
same,Content reduction (%),[1]; [16],4.6%
same,Content reduction (%),[1]; [17],5.2%
same,Content reduction (%),[1]; [18],5.6%
same,Content reduction (%),[1]; [19],1.1%
same,Content reduction (%),[1]; [20],2.0%
same,Content reduction (%),[1]; [21],3.0%
same,Content reduction (%),[1]; [22],3.8%
same,Content reduction (%),[1]; [23],4.7%
same,Content reduction (%),[1]; [24],5.6%
same,Content reduction (%),[1]; [25],6.5%
same,Content reduction (%),[1]; [26],7.4%
same,pEC50,[2],> 6.43
same,CC50,[3],> 10 µM
same,CC50 at 5 days,[4],> 10 µM
same,pEC50,[5],5.67
same,pEC50,[7],6.37
same,inhibition at 10 µM,[7],94.1%
CC(C)C(=O)OC[C@@]1(F)O[C@@H](n2ccc(=O)n(COC(=O)C3CCCCC3)c2=O)[C@H](O)[C@@H]1O [Compound X55],Content reduction (%),[1]; [11],2.4%
same,Content reduction (%),[1]; [12],4.9%
same,Content reduction (%),[1]; [13],6.9%
same,Content reduction (%),[1]; [14],9.0%
same,Content reduction (%),[1]; [15],10.8%
same,Content reduction (%),[1]; [16],12.7%
same,Content reduction (%),[1]; [17],14.2%
same,Content reduction (%),[1]; [18],15.4%
same,Content reduction (%),[1]; [19],1.0%
same,Content reduction (%),[1]; [20],2.3%
same,Content reduction (%),[1]; [21],3.3%
same,Content reduction (%),[1]; [22],4.4%
same,Content reduction (%),[1]; [23],5.4%
same,Content reduction (%),[1]; [24],6.4%
same,Content reduction (%),[1]; [25],7.7%
same,pEC50,[2],> 6.43
same,CC50,[3],> 10 µM
same,CC50 at 5 days,[4],> 10 µM
same,pEC50,[5],5.79
same,pEC50,[7],5.98
same,inhibition at 10 µM,[7],93.6%
CC(=O)O[C@H]1[C@H](n2ccc(=O)[nH]c2=O)O[C@](F)(COC(=O)C(C)C)[C@H]1OC(C)=O [Compound X265-3],solubility at 15 min,[6],100 µg/mL
"NC(=O)c1nc(F)c[nH]c1=O [favipiravir, reference compound]","in vivo fluorescence imaging, fluorescence intensity on ventral and dorsal side",[8],weak fluorescence intensity
same,body weight after 4 days of infection compared with the initial body weight,[9]; […],did not change significantly
CCCCCCCCCCCC(=O)OCn1c(=O)ccn([C@@H]2O[C@](F)(COC(=O)CCCCCCCCCCC)[C@@H](O)[C@H]2O)c1=O [Compound X199],pEC50,[2],6.39
same,CC50,[3],> 10 µM
same,CC50 at 5 days,[4],> 10 µM
same,pEC50,[5],6.34
same,pEC50,[7],5.55
same,inhibition at 10 µM,[7],96.1%
Br.CC(=O)O[C@H]1[C@H](n2ccc(=O)n(COC(=O)c3cccnc3)c2=O)O[C@](F)(COC(=O)C(C)C)[C@H]1OC(C)=O [X265 hydrobromide],solubility at 15 min,[6],8050 µg/mL
CC(C)C(=O)OCn1c(=O)ccn([C@@H]2O[C@](F)(COC(=O)[C@@H](N)C(C)C)[C@@H](OC(=O)C(C)C)[C@H]2OC(=O)C(C)C)c1=O [Compound X79],pEC50,[2],6.32
same,CC50,[3],> 10 µM
same,CC50 at 5 days,[4],> 10 µM
same,pEC50,[5],5.84
same,inhibition at 10 µM,[7],< 10%
CC(=O)O[C@H]1[C@H](n2ccc(=O)n(COC(=O)c3cccnc3)c2=O)O[C@](F)(COC(=O)C(C)C)[C@H]1OC(C)=O.Cl [X265 hydrochloride],solubility at 15 min,[6],19500 µg/mL
CC(C)C(=O)OC[C@@]1(F)O[C@@H](n2ccc(=O)n(COC(=O)[C@@H]3CCCN3C)c2=O)[C@H](OC(=O)C(C)C)[C@@H]1OC(=O)C(C)C [Compound X267],pEC50,[2],6.30
same,CC50,[3],> 10 µM
same,CC50 at 5 days,[4],> 10 µM
same,pEC50,[5],6.06
same,pEC50,[7],5.70
same,inhibition at 10 µM,[7],94.1%
CC(C)C(=O)OC[C@@]1(F)O[C@@H](n2ccc(=O)n(COC(=O)c3cccnc3)c2=O)[C@H](OC(=O)C(C)C)[C@@H]1OC(=O)C(C)C [Compound X206],Content reduction (%),[1]; [11],0.01%
same,Content reduction (%),[1]; [12],0.03%
same,Content reduction (%),[1]; [13],0.02%
same,Content reduction (%),[1]; [14],0.03%
same,Content reduction (%),[1]; [15],0.03%
same,Content reduction (%),[1]; [16],0.01%
same,Content reduction (%),[1]; [17],0.03%
same,Content reduction (%),[1]; [18],0.0%
same,Content reduction (%),[1]; [19],1.93%
same,Content reduction (%),[1]; [20],3.09%
same,Content reduction (%),[1]; [21],3.84%
same,Content reduction (%),[1]; [22],4.06%
same,Content reduction (%),[1]; [23],5.72%
same,Content reduction (%),[1]; [24],6.34%
same,Content reduction (%),[1]; [25],7.28%
same,Content reduction (%),[1]; [26],8.16%
same,pEC50,[2],6.42
same,CC50,[3],> 10 µM
same,CC50 at 5 days,[4],> 10 µM
same,pEC50,[5],5.61
same,pEC50,[7],5.76
same,inhibition at 10 µM,[7],93.7%
CC(=O)OC[C@@]1(F)O[C@@H](n2ccc(=O)n(COC(=O)c3cccnc3)c2=O)[C@H](OC(C)=O)[C@@H]1OC(C)=O.Cl [X219 hydrochloride],pulmonary viral load compared with the PR8+vehicle group,"[9]; […], X219 hydrochloride 10, 20, 30 mpk intragastric once daily, Day 4",significantly reduced
same,body weight after 4 days of infection compared with the initial body weight,[9]; […],did not change significantly
same,reduction of pulmonary viral load compared with the PR8+vehicle group,"[9]; dose 20 mg/kg intragastric once daily, Day 4",greater than 4 log10
same,reduction of pulmonary viral load compared with the PR8+vehicle group,"[9]; dose 30 mg/kg intragastric once daily, Day 4",greater than 4 log10
same,"levels of inflammatory factors (IL-6, IL-8, IL-1B, TNF-α, ISG-15, and TNF-1B) in the lungs compared with the PR8+vehicle group","[9]; lung tissue, Day 4",significantly lower
same,inhibitory effect on virus compared with the positive drug favipiravir (200 mpk),"[9]; pulmonary viral load, Day 4",significantly better
same,Content reduction (%),[1]; [11],0.24%
same,Content reduction (%),[1]; [12],0.28%
same,Content reduction (%),[1]; [13],0.34%
same,Content reduction (%),[1]; [14],0.55%
same,Content reduction (%),[1]; [15],0.64%
same,Content reduction (%),[1]; [16],0.72%
same,Content reduction (%),[1]; [17],0.73%
same,Content reduction (%),[1]; [18],0.87%
same,Content reduction (%),[1]; [19],0.98%
same,Content reduction (%),[1]; [20],2.03%
same,Content reduction (%),[1]; [21],3.09%
same,Content reduction (%),[1]; [22],4.10%
same,Content reduction (%),[1]; [23],5.13%
same,Content reduction (%),[1]; [24],6.13%
same,Content reduction (%),[1]; [25],7.07%
same,Content reduction (%),[1]; [26],8.02%
same,reduction in the pulmonary viral load compared with the vehicle group,"[10]; 20 mpk intragastric once daily, Day 4",about 0.7 log10
same,change in the body weight,"[10]; RSV A2-infected BALB/C mice, X219 hydrochloride 20 mpk or X28-1 10 mpk intragastric once daily",began to show an increase in the body weight on Day 3
same,solubility at 15 min,[6],4740 µg/mL
Br.CC(=O)OC[C@@]1(F)O[C@@H](n2ccc(=O)n(COC(=O)c3cccnc3)c2=O)[C@H](OC(C)=O)[C@@H]1OC(C)=O [X219 hydrobromide],solubility at 15 min,[6],17600 µg/mL
CC(C)C(=O)OCn1c(=O)ccn([C@@H]2O[C@](F)(COC(=O)C3CCCCC3)[C@@H](O)[C@H]2O)c1=O [Compound X61],pEC50,[2],> 6.43
same,CC50,[3],> 10 µM
same,CC50 at 5 days,[4],> 10 µM
same,pEC50,[5],5.69
same,pEC50,[7],6.23
same,inhibition at 10 µM,[7],96.1%
CC(=O)OC[C@@]1(F)O[C@@H](n2ccc(=O)[nH]c2=O)[C@H](OC(C)=O)[C@@H]1OC(C)=O [Compound X219-1],solubility at 15 min,[6],150 µg/mL
CC(C)C(=O)OC[C@@]1(F)O[C@@H](n2ccc(=O)n(COC(=O)[C@@H](N)C(C)C)c2=O)[C@H](OC(=O)C(C)C)[C@@H]1OC(=O)C(C)C [Compound X98],pEC50,[2],6.30
same,CC50,[3],> 10 µM
same,CC50 at 5 days,[4],> 10 µM
same,pEC50,[5],5.85
same,pEC50,[7],5.94
same,inhibition at 10 µM,[7],95.7%
CC(C)(C)C(=O)OCn1c(=O)ccn([C@@H]2O[C@](F)(COC(=O)c3cccnc3)[C@@H](O)[C@H]2O)c1=O [Compound X222],pEC50,[2],> 6.43
same,CC50,[3],> 10 µM
same,CC50 at 5 days,[4],> 10 µM
same,pEC50,[5],6.11
same,pEC50,[7],5.48
same,inhibition at 10 µM,[7],90.3%
